Source: PMC5321607 (ACS infectious diseases, 2016)

Tests used:
[1] = molecular target: anti-polymyxin B mouse IgM monoclonal antibody (clone 45); format: binding; conditions: SPR; for Kd: Biacore T200, 25°C, HBS-EP+, 1:1 kinetic fit or steady-state
[2] = test system: P. aeruginosa ATCC 27853; assay: MIC by broth microdilution; format: cell-based; conditions: CaMHB, 18 h, 37°C
[3] = test system: P. aeruginosa FADDI-PA001; assay: MIC by broth microdilution; format: cell-based; conditions: CaMHB, 18 h, 37°C
[4] = test system: P. aeruginosa FADDI-PA025; assay: MIC by broth microdilution; format: cell-based; conditions: CaMHB, 18 h, 37°C
[5] = test system: P. aeruginosa FADDI-PA070; assay: MIC by broth microdilution; format: cell-based; conditions: CaMHB, 18 h, 37°C
[6] = test system: P. aeruginosa FADDI-PA060; assay: MIC by broth microdilution; format: cell-based; conditions: CaMHB, 18 h, 37°C
[7] = test system: P. aeruginosa FADDI-PA090; assay: MIC by broth microdilution; format: cell-based; conditions: CaMHB, 18 h, 37°C
[8] = test system: A. baumannii ATCC 19606; assay: MIC by broth microdilution; format: cell-based; conditions: CaMHB, 18 h, 37°C
[9] = test system: A. baumannii FADDI-AB110; assay: MIC by broth microdilution; format: cell-based; conditions: CaMHB, 18 h, 37°C
[10] = test system: A. baumannii ATCC 17978; assay: MIC by broth microdilution; format: cell-based; conditions: CaMHB, 18 h, 37°C
[11] = test system: A. baumannii FADDI-AB156; assay: MIC by broth microdilution; format: cell-based; conditions: CaMHB, 18 h, 37°C
[12] = test system: A. baumannii FADDI-AB167; assay: MIC by broth microdilution; format: cell-based; conditions: CaMHB, 18 h, 37°C
[13] = test system: K. pneumoniae FADDI-KP032; assay: MIC by broth microdilution; format: cell-based; conditions: CaMHB, 18 h, 37°C
[14] = test system: K. pneumoniae FADDI-KP027; assay: MIC by broth microdilution; format: cell-based; conditions: CaMHB, 18 h, 37°C
[15] = test system: K. pneumoniae FADDI-KP003; assay: MIC by broth microdilution; format: cell-based; conditions: CaMHB, 18 h, 37°C
[16] = test system: K. pneumoniae FADDI-KP012; assay: MIC by broth microdilution; format: cell-based; conditions: CaMHB, 18 h, 37°C
[17] = test system: E. cloacae FADDI-EC006; assay: MIC by broth microdilution; format: cell-based; conditions: CaMHB, 18 h, 37°C
[18] = test system: E. cloacae FADDI-EC001; assay: MIC by broth microdilution; format: cell-based; conditions: CaMHB, 18 h, 37°C
[19] = test system: E. cloacae FADDI-EC003; assay: MIC by broth microdilution; format: cell-based; conditions: CaMHB, 18 h, 37°C

| Substance | Kd [1] [nM] | reduction in mAb binding affinity ([1]; compared to polymyxin B (FADDI-206/207: polymyxin B and colistin)) [fold] | MIC [2] [mg/L] | MIC [3] [mg/L] | MIC [4] [mg/L] | MIC [5] [mg/L] | MIC [6] [mg/L] | MIC [7] [mg/L] | MIC [8] [mg/L] | MIC [9] [mg/L] | MIC [10] [mg/L] | MIC [11] [mg/L] | MIC [12] [mg/L] | MIC [13] [mg/L] | MIC [14] [mg/L] | MIC [15] [mg/L] | MIC [16] [mg/L] | MIC [17] [mg/L] | MIC [18] [mg/L] | MIC [19] [mg/L] |
| --- | --- | --- | --- | --- | --- | --- | --- | --- | --- | --- | --- | --- | --- | --- | --- | --- | --- | --- | --- | --- |
| Octanoyl-Dab-Thr-Dab-Dab ^*-Dab-D-Leu-Leu-Dab-Dab-Thr ^* [Colistin] | 560 | 2 | 1 | 1 | 2 | >128 | >128 | 8 | 1 | 0.5 | 0.5 | 16 | 8 | 1 | >128 | 128 | 32 | <0.125 | 0.25 | <0.125 |
| Octanoyl-Dab-Thr-Dab-Dab ^*-Dab-D-Phe-Leu-Dab-Dab-Thr ^* [Polymyxin B] | 260 |  | 1 | 1 | 1 | 32 | >32 | 4 | 1 | 0.5 | 1 | 8 | 16 | <0.125 | 128 | >32 | 16 | 0.5 | 0.25 | 0.5 |
